Converted amounts (≈) assume the structure as drawn.

Data set [1] has as its target Proto-oncogene tyrosine-protein kinase Src (Homo sapiens, UniProt P12931). The data set is described as follows: Inhibition of Src by HTRF assay.
Data set [2] addresses Mitogen-activated protein kinase 14 (Homo sapiens, UniProt Q16539). Description: Inhibition of p38-alpha by HTRF assay.
For data set [3], the target named is Vascular endothelial growth factor receptor 2 (Homo sapiens, UniProt P35968). Description: Inhibition of KDR by HTRF assay.
Vascular endothelial growth factor receptor 2, sequence (P35968 whole entry): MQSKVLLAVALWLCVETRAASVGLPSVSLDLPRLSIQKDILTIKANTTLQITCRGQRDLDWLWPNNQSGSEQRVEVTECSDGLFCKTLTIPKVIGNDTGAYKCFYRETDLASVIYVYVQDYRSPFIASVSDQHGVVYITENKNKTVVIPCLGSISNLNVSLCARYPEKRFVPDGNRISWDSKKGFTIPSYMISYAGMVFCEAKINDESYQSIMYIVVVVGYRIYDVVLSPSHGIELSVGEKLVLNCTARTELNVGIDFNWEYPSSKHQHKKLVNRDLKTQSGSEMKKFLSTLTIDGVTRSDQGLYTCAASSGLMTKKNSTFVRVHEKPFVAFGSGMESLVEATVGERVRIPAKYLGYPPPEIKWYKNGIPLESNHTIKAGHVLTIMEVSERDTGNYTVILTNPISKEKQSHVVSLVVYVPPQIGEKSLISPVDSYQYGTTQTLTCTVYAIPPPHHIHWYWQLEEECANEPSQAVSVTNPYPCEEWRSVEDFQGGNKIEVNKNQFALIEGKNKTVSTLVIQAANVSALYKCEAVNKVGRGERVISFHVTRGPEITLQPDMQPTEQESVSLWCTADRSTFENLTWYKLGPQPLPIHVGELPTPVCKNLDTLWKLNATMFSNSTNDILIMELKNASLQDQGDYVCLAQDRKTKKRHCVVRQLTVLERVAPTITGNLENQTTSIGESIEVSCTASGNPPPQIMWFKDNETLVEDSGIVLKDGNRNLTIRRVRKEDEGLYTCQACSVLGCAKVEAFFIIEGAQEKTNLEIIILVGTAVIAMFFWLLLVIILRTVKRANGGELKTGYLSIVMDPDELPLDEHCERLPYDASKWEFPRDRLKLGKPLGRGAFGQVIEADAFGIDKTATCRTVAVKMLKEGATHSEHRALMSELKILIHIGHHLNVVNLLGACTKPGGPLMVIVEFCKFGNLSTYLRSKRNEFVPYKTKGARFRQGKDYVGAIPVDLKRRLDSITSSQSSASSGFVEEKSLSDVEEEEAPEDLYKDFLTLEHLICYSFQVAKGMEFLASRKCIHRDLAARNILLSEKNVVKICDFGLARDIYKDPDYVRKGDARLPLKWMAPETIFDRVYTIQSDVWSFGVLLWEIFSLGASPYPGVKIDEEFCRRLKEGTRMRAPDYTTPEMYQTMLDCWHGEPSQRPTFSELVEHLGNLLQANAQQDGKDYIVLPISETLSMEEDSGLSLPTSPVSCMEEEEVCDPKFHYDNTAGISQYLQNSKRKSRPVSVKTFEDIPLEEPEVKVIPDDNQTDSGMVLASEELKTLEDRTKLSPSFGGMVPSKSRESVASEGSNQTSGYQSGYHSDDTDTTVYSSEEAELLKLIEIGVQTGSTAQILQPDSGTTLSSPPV
In data set [4] the test system is T-cell. The data set is described as follows: Inhibition of anti-CD3/CD28-induced IL2 production in human T cells. In kind it is functional, cell-based.
Data set [5] relates to Lymphocyte. Description: Inhibition of T cell activation in human peripheral blood lymphocytes by mixed lymphocyte reaction. In kind it is functional, cell-based.
A short description of data set [6]: Solubility in simulated intestinal fluid at pH 6.8. In kind it is physicochemical.
For data set [7], the target named is Tyrosine-protein kinase Lck (Homo sapiens, UniProt P06239).
Tyrosine-protein kinase Lck, sequence (P06239 whole entry): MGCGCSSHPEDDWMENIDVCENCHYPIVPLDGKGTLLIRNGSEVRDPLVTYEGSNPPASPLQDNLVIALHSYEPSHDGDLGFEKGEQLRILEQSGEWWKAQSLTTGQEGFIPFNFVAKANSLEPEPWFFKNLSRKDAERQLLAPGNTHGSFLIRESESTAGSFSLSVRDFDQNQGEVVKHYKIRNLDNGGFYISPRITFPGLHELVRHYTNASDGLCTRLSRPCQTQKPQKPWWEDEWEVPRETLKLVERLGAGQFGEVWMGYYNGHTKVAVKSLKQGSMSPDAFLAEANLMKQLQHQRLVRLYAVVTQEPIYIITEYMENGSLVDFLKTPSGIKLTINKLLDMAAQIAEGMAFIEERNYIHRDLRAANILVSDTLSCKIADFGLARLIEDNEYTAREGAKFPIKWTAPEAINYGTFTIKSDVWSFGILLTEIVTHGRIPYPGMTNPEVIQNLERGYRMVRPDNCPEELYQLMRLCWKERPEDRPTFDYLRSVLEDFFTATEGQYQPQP
Description: Inhibition of Lck by HTRF assay
The test system of data set [8] is Rattus norvegicus. Description: Antiinflammatory activity against collagen-induced arthritis in Lewis rat assessed as reduction of paw swelling at 3 mg/kg, po qd for 7 days relative to control. Further details: scale not given: the % may be the effect or the level left. In kind it is functional.
The subject of data set [9] is Rattus norvegicus. The data set is described as follows: Antiinflammatory activity against collagen-induced arthritis in Lewis rat assessed as reduction of paw swelling at 10 mg/kg, po qd for 7 days relative to control. In kind it is functional. On the set-up: scale not given: the % may be the effect or the level left.
Data set [10] relates to Rattus norvegicus. The data set is described as follows: Antiinflammatory activity against collagen-induced arthritis in po dosed Lewis rat assessed as reduction of paw swelling. In kind it is functional.
For data set [11], the target named is Tyrosine-protein kinase Lyn (Homo sapiens, UniProt P07948). The data set is described as follows: Inhibition of Lyn by HTRF assay.
Tyrosine-protein kinase Lyn, sequence (P07948 whole entry): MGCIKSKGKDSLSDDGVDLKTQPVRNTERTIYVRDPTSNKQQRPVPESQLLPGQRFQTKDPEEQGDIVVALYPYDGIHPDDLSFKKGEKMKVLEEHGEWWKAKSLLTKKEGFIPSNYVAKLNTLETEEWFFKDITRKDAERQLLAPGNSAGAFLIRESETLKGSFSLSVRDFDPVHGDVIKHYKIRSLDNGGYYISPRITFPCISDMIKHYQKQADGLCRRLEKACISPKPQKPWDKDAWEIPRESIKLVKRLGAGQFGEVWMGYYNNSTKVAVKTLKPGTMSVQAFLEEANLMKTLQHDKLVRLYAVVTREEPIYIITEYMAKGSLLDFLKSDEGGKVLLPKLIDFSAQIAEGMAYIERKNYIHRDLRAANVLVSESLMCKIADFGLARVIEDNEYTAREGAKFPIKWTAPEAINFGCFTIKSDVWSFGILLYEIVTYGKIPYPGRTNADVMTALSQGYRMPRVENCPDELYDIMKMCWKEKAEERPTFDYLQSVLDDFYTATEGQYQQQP
In data set [12] the target is Tyrosine-protein kinase SYK (Homo sapiens, UniProt P43405). Description: Inhibition of Syk by HTRF assay.
The target of data set [13] is Tyrosine-protein kinase ZAP-70 (Homo sapiens, UniProt P43403). Description: Inhibition of ZAP-70 by HTRF assay.
For data set [14], the target named is Tyrosine-protein kinase JAK3 (Homo sapiens, UniProt P52333). The data set is described as follows: Inhibition of JAK3 by HTRF assay.
Data set [15] addresses Tyrosine-protein kinase ITK/TSK (Homo sapiens, UniProt Q08881). Description: Inhibition of Itk by HTRF assay.
Data set [16] concerns the target Tyrosine-protein kinase BTK (Homo sapiens, UniProt Q06187). Description: Inhibition of Btk by HTRF assay.
The target in data set [17] is Angiopoietin-1 receptor (Homo sapiens, UniProt Q02763). The data set is described as follows: Inhibition of Tie-2 by HTRF assay.
For data set [18], the target named is Mast/stem cell growth factor receptor Kit (Homo sapiens, UniProt P10721). Description: Inhibition of c-Kit by HTRF assay.
Mast/stem cell growth factor receptor Kit, sequence (P10721 whole entry): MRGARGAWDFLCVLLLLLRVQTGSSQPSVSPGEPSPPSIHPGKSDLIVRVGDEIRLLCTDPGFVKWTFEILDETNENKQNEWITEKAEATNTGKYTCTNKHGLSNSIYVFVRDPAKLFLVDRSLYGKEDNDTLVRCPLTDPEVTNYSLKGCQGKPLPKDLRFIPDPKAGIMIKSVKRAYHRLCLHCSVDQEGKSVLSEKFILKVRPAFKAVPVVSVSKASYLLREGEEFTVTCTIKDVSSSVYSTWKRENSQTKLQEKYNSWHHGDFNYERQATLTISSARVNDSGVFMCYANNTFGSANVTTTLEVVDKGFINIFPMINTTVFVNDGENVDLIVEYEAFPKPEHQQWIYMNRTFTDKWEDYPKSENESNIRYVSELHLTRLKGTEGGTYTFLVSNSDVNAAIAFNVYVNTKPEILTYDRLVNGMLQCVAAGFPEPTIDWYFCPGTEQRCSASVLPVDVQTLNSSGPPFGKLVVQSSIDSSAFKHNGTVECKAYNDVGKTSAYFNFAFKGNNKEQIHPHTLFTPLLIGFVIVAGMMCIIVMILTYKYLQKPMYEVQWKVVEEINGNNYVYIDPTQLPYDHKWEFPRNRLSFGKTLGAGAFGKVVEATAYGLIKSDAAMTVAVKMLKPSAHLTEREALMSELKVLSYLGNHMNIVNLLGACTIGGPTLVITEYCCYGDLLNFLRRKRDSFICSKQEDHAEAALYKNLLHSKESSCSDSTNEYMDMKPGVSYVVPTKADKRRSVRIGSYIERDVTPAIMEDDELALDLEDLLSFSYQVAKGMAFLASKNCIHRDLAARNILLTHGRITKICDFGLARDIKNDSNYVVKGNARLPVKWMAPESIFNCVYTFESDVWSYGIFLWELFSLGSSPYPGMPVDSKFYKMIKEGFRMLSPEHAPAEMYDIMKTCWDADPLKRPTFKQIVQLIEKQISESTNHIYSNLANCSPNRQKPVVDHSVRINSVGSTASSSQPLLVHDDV
Data set [19] concerns the target Serine/threonine-protein kinase B-raf (Homo sapiens, UniProt P15056). Description: Inhibition of b-Raf by HTRF assay.
For data set [20], the target named is Mitogen-activated protein kinase 9 (Homo sapiens, UniProt P45984). The data set is described as follows: Inhibition of JNK2 by HTRF assay.
Mitogen-activated protein kinase 9, sequence (P45984 whole entry): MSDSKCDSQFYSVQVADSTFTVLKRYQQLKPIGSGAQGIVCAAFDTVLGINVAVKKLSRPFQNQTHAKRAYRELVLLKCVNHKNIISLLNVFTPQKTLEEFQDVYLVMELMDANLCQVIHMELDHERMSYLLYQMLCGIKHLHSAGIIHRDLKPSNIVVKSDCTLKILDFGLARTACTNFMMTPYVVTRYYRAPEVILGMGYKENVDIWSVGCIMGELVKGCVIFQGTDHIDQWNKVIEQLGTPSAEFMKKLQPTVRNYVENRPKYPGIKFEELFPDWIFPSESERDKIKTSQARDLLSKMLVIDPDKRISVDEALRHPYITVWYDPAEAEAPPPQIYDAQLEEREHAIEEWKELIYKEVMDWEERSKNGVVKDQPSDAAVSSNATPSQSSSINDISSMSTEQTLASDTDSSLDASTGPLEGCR
In data set [21] the target is Mitogen-activated protein kinase 10 (Homo sapiens, UniProt P53779). Description: Inhibition of JNK3 by HTRF assay.
Data set [22] deals with Mitogen-activated protein kinase 3 (Homo sapiens, UniProt P27361). The data set is described as follows: Inhibition of Erk1 by HTRF assay.
Mitogen-activated protein kinase 3, sequence (P27361 whole entry): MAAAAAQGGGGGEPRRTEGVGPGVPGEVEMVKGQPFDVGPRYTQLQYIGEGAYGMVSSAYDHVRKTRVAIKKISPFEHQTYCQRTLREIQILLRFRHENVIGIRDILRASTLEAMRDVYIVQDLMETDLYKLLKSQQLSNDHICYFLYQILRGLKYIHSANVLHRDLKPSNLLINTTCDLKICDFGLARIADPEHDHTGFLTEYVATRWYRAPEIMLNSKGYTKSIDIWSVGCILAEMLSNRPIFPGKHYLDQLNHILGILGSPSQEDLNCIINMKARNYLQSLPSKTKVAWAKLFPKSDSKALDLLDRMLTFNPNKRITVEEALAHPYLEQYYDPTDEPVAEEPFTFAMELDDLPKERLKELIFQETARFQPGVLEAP
The target in data set [23] is Ribosomal protein S6 kinase alpha-5 (Homo sapiens, UniProt O75582). Description: Inhibition of MSK1 by HTRF assay.
Data set [24] is described as follows: Inhibition of anti-CD3/CD28-induced human T cell proliferation.
Data set [25] concerns T-cell. The data set is described as follows: Inhibition of anti-CD3/CD28-induced IL2 secretion in human T cells stimulated with phorbol myristic acid and calcium ionophore.
Data set [26] concerns Jurkat. The data set is described as follows: Cytotoxicity against human Jurkat T cells assessed as cell viability after 72 hrs.
The nature of data set [27]: AUC (0 to infinity) in Sprague-Dawley rat at 2 mg/kg, iv. In kind it is ADME, organism-based. Further details: time infinity, dose 2 mg/kg, route intravenous. Conditions: plasma.
Data set [28] in a line: Clearance in Sprague-Dawley rat at 2 mg/kg, iv. In kind it is ADME, organism-based. Further details: dose 2 mg/kg, route intravenous. As to conditions: in vivo.
Data set [29] in a line: Volume of distribution at steady state in Sprague-Dawley rat at 2 mg/kg, iv. As to conditions: in vivo, read-out: Vdss. In kind it is ADME, organism-based. Further details: dose 2 mg/kg, route intravenous.
Data set [30] can be described thus: Cmax in Sprague-Dawley rat at 5 mg/kg, po. In kind it is ADME, organism-based. On the set-up: dose 5 mg/kg, route oral. As to conditions: in vivo.
Data set [31] in a line: Tmax in Sprague-Dawley rat at 5 mg/kg, po. As to conditions: in vivo. In kind it is ADME, organism-based. Further details: dose 5 mg/kg, route oral.
Data set [32] can be described thus: AUC (0 to infinity) in Sprague-Dawley rat at 5 mg/kg, po. In kind it is ADME, organism-based. On the set-up: time infinity, dose 5 mg/kg, route oral. Conditions: plasma.
Data set [33] can be described thus: Oral bioavailability in Sprague-Dawley rat at 5 mg/kg. In kind it is ADME, organism-based. As to conditions: in vivo.
Data set [34] has as its system Mus musculus. The data set is described as follows: Inhibition of anti-CD3-induced IL2 production in BALB/c mouse serum at 3 mg/kg, po by ELISA relative to control. In kind it is functional.
Data set [35] has as its system Mus musculus. The data set is described as follows: Inhibition of anti-CD3-induced IL2 production in BALB/c mouse serum at 10 mg/kg, po by ELISA relative to control. In kind it is functional.
Data set [36] deals with Mus musculus. The data set is described as follows: Inhibition of anti-CD3-induced IL2 production in BALB/c mouse serum at 30 mg/kg, po by ELISA relative to control. In kind it is functional.
For data set [37], the species on record is Mus musculus. Description: Inhibition of anti-CD3-induced IL2 production in BALB/c mouse serum by ELISA. In kind it is functional.
The test system of data set [38] is Rattus norvegicus. Description: Inhibition of Mycobacterium tuberculosis H37Ra-induced arthritis in Lewis rat assessed as reduction of paw swelling at 10 mg/kg, po daily from day 9 to day 17 relative to control. In kind it is functional.
Data set [39] relates to Rattus norvegicus. Description: Inhibition of Mycobacterium tuberculosis H37Ra-induced arthritis in Lewis rat assessed as reduction of paw swelling at 20 mg/kg, po daily from day 9 to day 17 relative to control. In kind it is functional.
In data set [40] the test system is Rattus norvegicus. Description: Inhibition of Mycobacterium tuberculosis H37Ra-induced arthritis in Lewis rat assessed as reduction of paw swelling at 60 mg/kg, po daily from day 9 to day 17 relative to control. In kind it is functional.
The subject of data set [41] is Rattus norvegicus. Description: Inhibition of Mycobacterium tuberculosis H37Ra-induced arthritis in po dosed Lewis rat assessed as reduction of paw swelling. In kind it is functional.
Data set [42] can be described thus: AUC in Mycobacterium tuberculosis H37Ra-induced arthritis Lewis rat. In kind it is ADME, organism-based. As to conditions: plasma.
The nature of data set [43]: Cmax in Mycobacterium tuberculosis H37Ra-induced arthritis Lewis rat. In kind it is ADME, organism-based. As to conditions: in vivo.
The test system of data set [44] is Rattus norvegicus. Description: Antiinflammatory activity against collagen-induced arthritis in Lewis rat assessed as reduction of paw swelling at 0.3 mg/kg, po qd for 7 days relative to control. Further details: scale not given: the % may be the effect or the level left. In kind it is functional.
The test system of data set [45] is Rattus norvegicus. The data set is described as follows: Antiinflammatory activity against collagen-induced arthritis in Lewis rat assessed as reduction of paw swelling at 1 mg/kg, po qd for 7 days relative to control. In kind it is functional. On the set-up: scale not given: the % may be the effect or the level left.
Data set [46] can be described thus: AUC in collagen-induced arthritis Lewis rat. As to conditions: plasma. In kind it is ADME, organism-based.
Data set [47] can be described thus: Cmax in collagen-induced arthritis Lewis rat. In kind it is ADME, organism-based. Conditions: in vivo.
A short description of data set [48]: Half life in Sprague-Dawley rat at 2 mg/kg, iv. In kind it is ADME, organism-based. Further details: dose 2 mg/kg, route intravenous. Conditions: in vivo.

Mitogen-activated protein kinase 14, sequence (Q16539 whole entry): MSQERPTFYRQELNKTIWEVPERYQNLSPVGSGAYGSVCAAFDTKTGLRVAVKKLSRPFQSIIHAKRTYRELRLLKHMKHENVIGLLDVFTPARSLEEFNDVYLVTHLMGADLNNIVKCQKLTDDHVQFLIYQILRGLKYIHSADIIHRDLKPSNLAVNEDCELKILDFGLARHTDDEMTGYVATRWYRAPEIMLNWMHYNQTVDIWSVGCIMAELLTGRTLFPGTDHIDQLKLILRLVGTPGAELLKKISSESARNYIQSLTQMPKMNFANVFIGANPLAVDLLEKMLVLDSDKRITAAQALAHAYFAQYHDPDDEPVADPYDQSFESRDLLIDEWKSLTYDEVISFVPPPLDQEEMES
Proto-oncogene tyrosine-protein kinase Src, sequence (P12931 2-536 limits assumed): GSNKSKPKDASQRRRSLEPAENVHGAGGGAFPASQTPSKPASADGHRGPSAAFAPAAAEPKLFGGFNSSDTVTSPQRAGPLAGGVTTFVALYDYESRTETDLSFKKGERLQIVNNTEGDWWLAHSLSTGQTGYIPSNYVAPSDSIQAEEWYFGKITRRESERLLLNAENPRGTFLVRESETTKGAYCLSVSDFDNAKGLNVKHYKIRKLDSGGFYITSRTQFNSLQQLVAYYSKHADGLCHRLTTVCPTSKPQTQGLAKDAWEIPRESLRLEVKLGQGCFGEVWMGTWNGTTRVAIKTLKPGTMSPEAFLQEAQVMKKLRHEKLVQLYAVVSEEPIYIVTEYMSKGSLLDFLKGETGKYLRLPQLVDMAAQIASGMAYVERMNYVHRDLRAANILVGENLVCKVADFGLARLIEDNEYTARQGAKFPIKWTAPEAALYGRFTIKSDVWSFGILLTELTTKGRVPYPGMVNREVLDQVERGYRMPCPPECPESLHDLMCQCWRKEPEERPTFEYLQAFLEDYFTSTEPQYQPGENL

Consider `COc1cc(Nc2ncc3c(=O)n(-c4c(C)cccc4C)c4nc5ccccc5n4c3n2)cc(OC)c1OCCN1CCN(C)CC1`, for which the IC50 in data set [1] was 77 nM; in [2], over 10 µM; in data set [3] it was 3.3 µM; in [4], 610 nM; in [5], 290 nM; in [7] it was 6 nM. In addition, the solubility in [6] is over 200 µg/mL.

Regarding `COc1cc(Nc2ncc3c(=O)n(-c4c(C)cccc4C)c4nc5ccccc5n4c3n2)cc(OC)c1OC`, the IC50 in [1] was 210 nM; in data set [2], over 10 µM; in data set [3], 1.9 µM; in data set [4] it was 970 nM; in data set [5] it was 470 nM; in data set [7] it was 27 nM. The molecule further came in with a solubility in data set [6] of 15 µg/mL (≈ 28.7 µM).

Take `Cc1cccc(C)c1-n1c(=O)c2cnc(Nc3ccc(N4CCN(C)CC4)cc3)nc2n2c3ccccc3nc12`: the Activity is 49% in [8], 95% in data set [9], 15% in [44] and 21% in data set [45]. In addition, the values for the ED50 in data set [10], in [37] and in [41] were 3.2 mg/kg, 26 mg/kg and 24 mg/kg, respectively. The IC50 is over 10 µM in data set [2]; 5.1 µM in [3]; 460 nM in data set [4]; 47 nM in data set [5]; 21 nM in data set [11]; 200 nM in data set [12]. Moreover, the IC50 in data set [13] was 1500 nM; in [14] it was 150 nM; in data set [15], over 20 µM; in data set [16] it was 410 nM; in [17] it was 750 nM; in data set [18] it was 560 nM. The IC50 is 540 nM in data set [19]; over 40 µM in data set [20]; 7.3 µM in data set [21]; over 100 µM in [22]; over 100 µM in data set [23]; 530 nM in data set [24]. The IC50 in [25] was 5.8 µM; in [26] it was 490 nM. The amount in solution in data set [6] (solubility) came to 153 µg/mL (≈ 288 µM). Besides, the AUC(0-inf) in [27] stood at 1150 ng·h/mL; in data set [32], 862 ng·h/mL. The clearance in data set [28] was 30 mL/min/kg. Besides, the Vd in [29] was 7.5 L/kg. Also, the figures for the Cmax in data set [30], in data set [43] and in [47] were 82 ng/mL, 700 nM and 500 nM, respectively. For the same molecule, the Tmax in [31] amounted to 3 h. Moreover, the bioavailability in data set [33] turned out to be 17%. The molecule also registered an inhibition in vivo at 3 mg/kg in [34] of 15%. The inhibition in vivo at 10 mg/kg in data set [35] came to 28%; in data set [38], 17%. The inhibition in vivo at 30 mg/kg in [36] was found to be 56%. The inhibition in vivo at 20 mg/kg in [39] stood at 64%. Besides, in [40], the inhibition in vivo at 60 mg/kg worked out at 90%. Besides, the AUC in data set [42] was found to be 2.7 µM·h; in data set [46] it was 3.3 µM·h. Besides, the half-life in data set [48] was 187 min.

For the molecule `COc1cc(Nc2ncc3c(=O)n(-c4c(C)cccc4C)c4nc5ccccc5n4c3n2)ccc1N1CCN(C)CC1`, the IC50 was found to be 100 nM in data set [1]; 7.5 µM in data set [2]; 3.6 µM in data set [3]; 430 nM in data set [4]; 51 nM in data set [5]; 5 nM in [7]. The solubility in data set [6] is over 200 µg/mL.

For the molecule `COc1cc(Nc2ncc3c(=O)n(-c4c(C)cccc4C)c4nc5ccccc5n4c3n2)ccc1OCCCN1CCN(C)CC1`, the IC50 in [1] is 180 nM; in [2] it was over 10 µM; in data set [3] it was 5 µM; in data set [4] it was 1500 nM; in [5], 140 nM; in data set [7] it was 12 nM. In [6], this molecule displayed a solubility of over 200 µg/mL.

For the molecule `COc1cc(Nc2ncc3c(=O)n(-c4c(C)cccc4C)c4nc5ccccc5n4c3n2)cc(OC)c1OCCN1CCOCC1`, the IC50 was 44 nM in data set [1]; over 10 µM in data set [2]; 1.7 µM in [3]; 360 nM in data set [4]; 180 nM in data set [5]; 10 nM in data set [7]. Also, the concentration in solution in data set [6] (solubility) was 18 µg/mL (≈ 29 µM).

(Values after ChEMBL document CHEMBL1143254, “Structure-based design of novel 2-amino-6-phenyl-pyrimido[5',4':5,6]pyrimido[1,2-a]benzimidazol-5(6H)-ones as potent and orally active inhibitors of lymphocyte specific kinase (Lck): synthesis, SAR, and in vivo anti-inflammatory activity” (J Med Chem, 2008).)
